Assay results: PMC5626627 (The FEBS journal, 2017)
Substitutions are numbered along the chain they refer to.

How the values were obtained:
[1] = target: T1, corn root FNR (ferredoxin:NADP+ reductase) (Zea mays, UniProt B4G043); assay: anaerobic spectrophotometric titration, flavin charge-transfer bands; assay type: biochemical; settings: 50 mM HEPES-NaOH, pH 7.0, 15 °C
T1 sequence (B4G043 66-381): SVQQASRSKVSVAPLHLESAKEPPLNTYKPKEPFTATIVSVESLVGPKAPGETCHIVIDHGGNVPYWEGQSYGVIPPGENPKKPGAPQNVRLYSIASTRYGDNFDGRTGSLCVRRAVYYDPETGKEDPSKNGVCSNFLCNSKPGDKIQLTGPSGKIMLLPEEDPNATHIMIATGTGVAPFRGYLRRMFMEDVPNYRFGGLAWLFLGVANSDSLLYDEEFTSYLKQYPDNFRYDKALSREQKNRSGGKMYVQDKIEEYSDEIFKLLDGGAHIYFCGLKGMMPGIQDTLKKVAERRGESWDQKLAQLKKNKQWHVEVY

[2] = target: T2, corn root FNR (ferredoxin:NADP+ reductase) (Zea mays, UniProt B4G043, Y381S); assay: anaerobic titration, visible absorption of FAD; assay type: binding
T2 sequence (B4G043 66-381 Y381S): T1 sequence (B4G043 66-381) with Y316S

[3] = target: T2, corn root FNR (ferredoxin:NADP+ reductase); assay: titration, visible absorption of FAD; assay type: binding

| SMILES | Kd [3] [µM] | also measured |
| --- | --- | --- |
| NC(=O)C1=CN([C@@H]2O[C@H](COP(=O)(O)OP(=O)(O)OC[C@H]3O[C@@H](n4cnc5c(N)ncnc54)[C@H](OP(=O)(O)O)[C@@H]3O)[C@@H](O)[C@H]2O)C=CC1 [NADPH] |  | anaerobic spectrophotometric titration, flavin charge-transfer bands [1]: for wild-type the CTC-1 absorption band dominates |
| NC(=O)c1ccc[n+]([C@@H]2O[C@H](COP(=O)(O)OP(=O)(O)OC[C@H]3O[C@@H](n4cnc5c(N)ncnc54)[C@H](OP(=O)(O)O)[C@@H]3O)[C@@H](O)[C@H]2O)c1 [NADP^+] |  | Kd [2]: ≤ 0.02 µM |
| NC(=O)c1ccc[n+]([C@@H]2O[C@H](COP(=O)(O)OP(=O)(O)OC[C@H]3O[C@@H](n4cnc5c(N)ncnc54)[C@H](O)[C@@H]3O)[C@@H](O)[C@H]2O)c1 [NAD^+] | 145 ± 5 |  |
| NC(=O)c1cccnc1 [nicotinamide] | 3000 ± 100 |  |
